Reference: patent US11254640B2, “N-substituted indoles and other heterocycles for treating brain disorders” (The Regents of the University of California, priority 2019, dated 2022)

Experiments:
cortical neurons [1] = test: Dendritogenesis assay, Sholl analysis; format: cell-based, rat; details: Rattus norvegicus, Cortical neurone; 10 μM; Nmax with vehicle (DMSO) = 0% and ketamine = 100%; read-out: % efficacy in sholls
Text: Dendritogenesis Assays. Phenotypic screening has historically proven more successful than target-based approaches for identifying drugs with novel mechanisms of action. Having established a simple and robust method for accessing isoDMT analogs, tested next was their ability to increase dendritic arbor complexity in cultures of cortical neurons using a phenotypic assay. Following treatment, neurons were fixed and visualized using an antibody against MAP2—a cytoskeletal protein localized to the somatodendritic compartment of neurons. Sholl analysis was then performed, and the maximum number of crossings (Nmax) was used as a quantitative metric of dendritic arbor complexity. For statistical comparisons between specific compounds, the raw Nmax values were compared. Percent efficacies were determined by setting the Nmax values for the vehicle (DMSO) and positive (ketamine) controls equal to 0% and 100%, respectively.
(§1) Animals. For the dendritogenesis experiments, timed pregnant Sprague Dawley rats were obtained from Charles River Laboratories (Wilmington, Mass.). For the head-twitch response assay, male and female C57BL/6J mice were obtained from Jackson Laboratory (Sacramento, Calif.). Mice were housed in a temperature and humidity-controlled room maintained on a 12-h light/dark cycle in groups of 4-5 (same sex). Animals weighed between 17 and 30 g at the time of the experiments. All experimental procedures involving rodents were approved by the UC Davis Institutional Animal Care and Use Committee (IACUC) and adhered to principles described in the National Institutes of Health Guide for the Care and Use of Laboratory Animals. The University of California, Davis and the University of California, San Francisco are accredited by the Association for Assessment and Accreditation of Laboratory Animal Care International (AAALAC).
Dendritogenesis—Sholl Analysis. Dendritogenesis experiments were performed following a previously published method with slight modifications. Neurons were plated in 96-well format (200 μL of media per well) at a density of approximately 15,000 cells/well in Neurobasal (Life Technologies) containing 1% penicillin-streptomycin, 10% heat-inactivated fetal bovine serum, and 0.5 mM glutamine. After 24 h, the medium was replaced with Neurobasal containing 1× B27 supplement (Life Technologies), 1% penicillin-streptomycin, 0.5 mM glutamine, and 12.5 μM glutamate. After 3 days in vitro (DIV3), the cells were treated with compounds. All compounds tested in the dendritogenesis assays were treated at 10 μM unless noted otherwise. Stock solutions of the compounds in DMSO were first diluted 100-fold in Neurobasal before an additional 10-fold dilution into each well (total dilution=1:1000; 0.1% DMSO concentration). Treatments were randomized. After 1 h, the media was removed and replaced with new Neurobasal media containing 1× B27 supplement, 1% penicillin-streptomycin, 0.5 mM glutamine, and 12.5 μM glutamate. The cells were allowed to grow for an additional 71 h. At that time, neurons were fixed by removing 80% of the media and replacing it with a volume of 4% aqueous paraformaldehyde (Alfa Aesar) equal to 50% of the working volume of the well. Then, the cells were incubated at room temperature for 20 min before the fixative was aspirated and each well washed twice with DPBS. Cells were permeabilized using 0.2% Triton X-100 (ThermoFisher) in DPBS for 20 minutes at room temperature without shaking. Plates were blocked with antibody diluting buffer (ADB) containing 2% bovine serum albumin (BSA) in DPBS for 1 h at room temperature. Then, plates were incubated overnight at 4° C. with gentle shaking in ADB containing a chicken anti-MAP2 antibody (1:10,000; EnCor, CPCA-MAP2). The next day, plates were washed three times with DPBS and once with 2% ADB in DPBS. […]

C57BL/6J mice = test: Head twitch response (HTR) assay; format: in vivo, mouse; details: intraperitoneal injection, head-twitches over 20 mins (FIG. 8, FIG. 9)
Text: as §1
Head twitch response experiments. Mice (9-10 weeks old) were injected intraperitoneally with compound (injection volume 5 ml/kg), placed in an empty cage, and filmed for 20 minutes. Cages were cleaned with 70% ethanol between experiments.

rats = rats trained to discriminate DOM from saline; cited from earlier work
5HT2A sensor [2] = test: 5HT2A sensor assay, agonist mode (sLight1.3s HEK293T stable line); format: cell-based; details: for activation of 5HT2A sensor assay in agonist mode at 10 μM: 10 μM of compound (FIG. 11); for activation of 5HT2A sensor assay in agonist mode (dose response): dose response (FIG. 10)
Method in brief: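 Fluorescence change, dFF=(Fsat−Fapo)/Fapo, was taken from membrane images (460 nm excitation) before and after compound addition and scaled as % activation, with the DMSO mean as 0 and the 5HT mean as 100. The cells were sLight1.3s HEK293T in HBSS. Final compound levels were 100 μM, 10 μM and 100 nM in 0.1% DMSO, in triplicate.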

cortical neurons [3] = test: Ketanserin blocking experiments (dendritogenesis); format: cell-based, rat; details: ketanserin 10 μM, drug 1 μM (FIG. 7)
Procedure: Ketanserin Blocking Experiments. For the ketaserin blocking experiments (FIG. 7), a slightly modified method was employed. On DIV 3, neurons were first treated with ketanserin (10 μM) for 1 h followed by a 1 h incubation with drug (1 μM) and ketanserin (10 μM) (final concentration of DMSO=0.2%). After 1 h, the media was removed and replaced with new Neurobasal media containing 1× B27 supplement, 1% penicillin-streptomycin, 0.5 mM glutamine, and 12.5 μM glutamate. The cells were allowed to grow for an additional 71 h before being fixed, stained, and imaged.

5HT2A sensor [4] = test: 5HT2A sensor assay, antagonist mode (sLight1.3s HEK293T stable line); format: cell-based; details: dose response (FIG. 12A, FIG. 12B)
Method in brief: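 Inactivation score is computed from membrane dFF as (dFF(compound+5HT)−dFF(5HT))/dFF(5HT), with HBSS-only fluorescence as Fapo. Final concentrations: 5-HT 100 nM added first, then compound at 100 nM, 10 μM or 100 μM in 0.1% DMSO. Triplicates; FITC imaging, 5 fields per well.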

C57/BL6J mice = test: Forced swim test (FST); format: in vivo, mouse; details: 24 h after drug administration; i.p., compounds 20 mg/kg, ketamine 3 mg/kg
Procedure: Forced Swim Test. As increased cortical structural plasticity in the anterior parts of the brain mediates the sustained (>24 h) antidepressant-like effects of ketamine and play a role in the therapeutic effects of 5-HT2A agonists, the impact of IsoDMT analogs on forced swim test (FST) behavior (FIG. 14A and FIG. 14B) was evaluated. First, a pretest was used to induce a depressive phenotype. Compounds were administered 24 h after the pre-test, and the FST was performed 24 h and 7 d post drug administration.
Forced Swim Test (FST). Male C57/BL6J mice (9-10 weeks old at time of experiment) were obtained from the Jackson Lab and housed 4-5 mice/cage in a UCD vivarium following an IACUC approved protocol. After 1 week in the vivarium each mouse was handled for approximately 1 minute by a experimenter for 3 consecutive days leading up to the first FST. […] Immobility scores for all mice were determined after the pre-test and mice were randomly assigned to treatment groups to generate groups with similar average immobility scores to be used for the following two FST sessions. […] Experiments were video-recorded and manually scored offline. Immobility time—defined as passive floating or remaining motionless with no activity other than that needed to keep the mouse's head above water—was scored for the last 4 min of the 6 min trial.

SMILES: COc1ccc2[nH]cc(CCN(C)C)c2c1 [Example 28, 2-(5-methoxy-1H-indol-3-yl)-N,N-dimethylethan-1-amine, reference compound]
- Emax at 10 µM (cortical neurons [1]): 80%
- head-twitch response (hallucinogenic potential) (C57BL/6J mice): robust, dose-dependent HTR
- substitution for hallucinogenic training drug (DOM) in drug discrimination (rats): substitutes
- activation of 5HT2A sensor assay in agonist mode at 10 μM (5HT2A sensor [2]): activate the 5HT2A sensor assay in agonist mode
- activation of 5HT2A sensor assay in agonist mode (dose response) (5HT2A sensor [2]): activate
- effect of 5-HT2A antagonist pretreatment on increase in dendritic growth (cortical neurons [3]): blocked

SMILES: COc1ccc2c(CCN(C)C)c[nH]c2c1 [Example 30, 2-(6-methoxy-1H-indol-3-yl)-N,N-dimethylethan-1-amine, reference compound]
- competition with 5-HT in 5HT2A sensor assay, antagonist mode (dose response) (5HT2A sensor [4]): compete off 5-HT
- Emax at 10 µM (cortical neurons [1]): 72%
- head-twitch response (hallucinogenic potential) (C57BL/6J mice): did not produce a HTR
- substitution for hallucinogenic training drug (DOM) in drug discrimination (rats): does not
- activation of 5HT2A sensor assay in agonist mode at 10 μM (5HT2A sensor [2]): do not activate the 5HT2A sensor assay in agonist mode
- activation of 5HT2A sensor assay in agonist mode (dose response) (5HT2A sensor [2]): do not

SMILES: CNC1(c2ccccc2Cl)CCCCC1=O (stereo not shown) [ketamine, reference compound]
- immobility in forced swim test (C57/BL6J mice): significantly reduced immobility
